Measurements taken from the supplement of paper PMC10307832.

Legend:
Test in all cases: relative viability (nuclei count vs DMSO), 5 days (fraction); higher = more cells survive
NCI-H1975 = test system: NCI-H1975
In short: (§1)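 Nuclei were stained with Hoechst during a one-step fixation (final 0.05% Triton X-100, 1% formaldehyde, 1 ug/ml Hoechst) carried out 5 days after dosing, then counted on 4× images. The cells, lung cancer lines in 1536-well plates, had been dosed by pin tool the day after seeding with one drug alone or a fixed anchor-drug dose plus five library-drug doses (not always all listed) in √10 steps. Relative viability is the nuclei count in treated wells divided by that in vehicle wells, and each value is the median of duplicate plates.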

CAL-12T = test system: CAL-12T
In short: as §1

LCLC-97TM1 = test system: LCLC-97TM1
In short: as §1

NCI-H1563 = test system: NCI-H1563
In short: as §1

NCI-H1734 = test system: NCI-H1734
In short: as §1

HCC-827 = test system: HCC-827
In short: as §1

H3255 = test system: H3255
In short: as §1

NCI-H1355 = test system: NCI-H1355
In short: as §1

NCI-H661 = test system: NCI-H661
In short: as §1

NCI-H322M = test system: NCI-H322M
In short: as §1

NCI-H1755 = test system: NCI-H1755
In short: as §1

NCI-H520 = test system: NCI-H520
In short: as §1

NCI-H1650 = test system: NCI-H1650
In short: as §1

RERF-LC-KJ = test system: RERF-LC-KJ
In short: as §1

LK-2 = test system: LK-2
In short: as §1

PC-14 = test system: PC-14
In short: as §1

NCI-H2405 = test system: NCI-H2405
In short: as §1

NCI-H2342 = test system: NCI-H2342
In short: as §1

NCI-H2228 = test system: NCI-H2228
In short: as §1

PC-3 [JPC-3] = test system: PC-3 [JPC-3]
In short: as §1

HCC-15 = test system: HCC-15
In short: as §1

EKVX = test system: EKVX
In short: as §1

For `CC(=O)O[C@@]12CO[C@@H]1C[C@H](O)[C@@]1(C)C(=O)[C@H](O)C3=C(C)[C@@H](OC(=O)[C@H](O)[C@@H](NC(=O)OC(C)(C)C)c4ccccc4)C[C@@](O)([C@@H](OC(=O)c4ccccc4)[C@H]21)C3(C)C` [Docetaxel] + Cc1nc(Nc2ncc(C(=O)Nc3c(C)cccc3Cl)s2)cc(N2CCN(CCO)CC2)n1 [Dasatinib] (partner 0.075 µM), the relative viability (NCI-H1975; first compound 0.0002 µM) was 0.377, the relative viability (NCI-H1975; first compound 0.000632 µM) was 0.284 and the relative viability (NCI-H1975; first compound 0.002 µM) was 0.152. For the same compound, the relative viability (NCI-H1975; first compound 0.006325 µM) was 0.127, the relative viability (NCI-H1975; first compound 0.02 µM) was 0.107 and the relative viability (CAL-12T; first compound 0.0002 µM) was 0.412. It also gave a relative viability (CAL-12T; first compound 0.000632 µM) of 0.192, a relative viability (CAL-12T; first compound 0.002 µM) of 0.137 and a relative viability (CAL-12T; first compound 0.006325 µM) of 0.0909. It also gave a relative viability (CAL-12T; first compound 0.02 µM) of 0.0651, a relative viability (LCLC-97TM1; first compound 0.0002 µM) of 0.843 and a relative viability (LCLC-97TM1; first compound 0.000632 µM) of 0.762. It also gave a relative viability (LCLC-97TM1; first compound 0.002 µM) of 0.675, a relative viability (LCLC-97TM1; first compound 0.006325 µM) of 0.273 and a relative viability (LCLC-97TM1; first compound 0.02 µM) of 0.144. For the same compound, the relative viability (NCI-H1563; first compound 0.0002 µM) was 0.433, the relative viability (NCI-H1563; first compound 0.000632 µM) was 0.454 and the relative viability (NCI-H1563; first compound 0.002 µM) was 0.423. The relative viability (NCI-H1563; first compound 0.006325 µM) was 0.406, the relative viability (NCI-H1563; first compound 0.02 µM) was 0.339 and the relative viability (NCI-H1734; first compound 0.0002 µM) was 0.46. It also gave a relative viability (NCI-H1734; first compound 0.000632 µM) of 0.286, a relative viability (NCI-H1734; first compound 0.002 µM) of 0.234 and a relative viability (NCI-H1734; first compound 0.006325 µM) of 0.239. It also gave a relative viability (NCI-H1734; first compound 0.02 µM) of 0.163, a relative viability (HCC-827; first compound 0.0002 µM) of 0.237 and a relative viability (HCC-827; first compound 0.000632 µM) of 0.297. It also gave a relative viability (HCC-827; first compound 0.002 µM) of 0.289, a relative viability (HCC-827; first compound 0.006325 µM) of 0.22 and a relative viability (HCC-827; first compound 0.02 µM) of 0.155. It also gave a relative viability (H3255; first compound 0.0002 µM) of 0.378, a relative viability (H3255; first compound 0.000632 µM) of 0.439 and a relative viability (H3255; first compound 0.002 µM) of 0.276. It also gave a relative viability (H3255; first compound 0.006325 µM) of 0.309, a relative viability (H3255; first compound 0.02 µM) of 0.252 and a relative viability (NCI-H1355; first compound 0.0002 µM) of 0.726. It also gave a relative viability (NCI-H1355; first compound 0.000632 µM) of 0.665, a relative viability (NCI-H1355; first compound 0.002 µM) of 0.472 and a relative viability (NCI-H1355; first compound 0.006325 µM) of 0.314. For the same compound, the relative viability (NCI-H1355; first compound 0.02 µM) was 0.203, the relative viability (NCI-H661; first compound 0.0002 µM) was 0.836 and the relative viability (NCI-H661; first compound 0.000632 µM) was 0.792. It also gave a relative viability (NCI-H661; first compound 0.002 µM) of 0.528, a relative viability (NCI-H661; first compound 0.006325 µM) of 0.395 and a relative viability (NCI-H661; first compound 0.02 µM) of 0.284. For the same compound, the relative viability (NCI-H322M; first compound 0.0002 µM) was 0.242, the relative viability (NCI-H322M; first compound 0.000632 µM) was 0.251 and the relative viability (NCI-H322M; first compound 0.002 µM) was 0.372. It also gave a relative viability (NCI-H322M; first compound 0.006325 µM) of 0.406, a relative viability (NCI-H322M; first compound 0.02 µM) of 0.346 and a relative viability (NCI-H1755; first compound 0.0002 µM) of 0.385. For the same compound, the relative viability (NCI-H1755; first compound 0.000632 µM) was 0.359, the relative viability (NCI-H1755; first compound 0.002 µM) was 0.306 and the relative viability (NCI-H1755; first compound 0.006325 µM) was 0.286. The relative viability (NCI-H1755; first compound 0.02 µM) was 0.222, the relative viability (NCI-H520; first compound 0.0002 µM) was 0.186 and the relative viability (NCI-H520; first compound 0.000632 µM) was 0.194. It also gave a relative viability (NCI-H520; first compound 0.002 µM) of 0.164, a relative viability (NCI-H520; first compound 0.006325 µM) of 0.159 and a relative viability (NCI-H520; first compound 0.02 µM) of 0.126. For the same compound, the relative viability (NCI-H1650; first compound 0.0002 µM) was 0.263, the relative viability (NCI-H1650; first compound 0.000632 µM) was 0.245 and the relative viability (NCI-H1650; first compound 0.02 µM) was 0.104. It also gave a relative viability (RERF-LC-KJ; first compound 0.0002 µM) of 0.754, a relative viability (RERF-LC-KJ; first compound 0.000632 µM) of 0.586 and a relative viability (RERF-LC-KJ; first compound 0.002 µM) of 0.295. For the same compound, the relative viability (RERF-LC-KJ; first compound 0.006325 µM) was 0.264, the relative viability (RERF-LC-KJ; first compound 0.02 µM) was 0.155 and the relative viability (LK-2; first compound 0.0002 µM) was 0.212. It also gave a relative viability (LK-2; first compound 0.000632 µM) of 0.268, a relative viability (LK-2; first compound 0.002 µM) of 0.181 and a relative viability (LK-2; first compound 0.006325 µM) of 0.21. The relative viability (LK-2; first compound 0.02 µM) was 0.113, the relative viability (PC-14; first compound 0.0002 µM) was 0.286 and the relative viability (PC-14; first compound 0.000632 µM) was 0.188. It also gave a relative viability (PC-14; first compound 0.002 µM) of 0.0514, a relative viability (PC-14; first compound 0.006325 µM) of 0.0304 and a relative viability (PC-14; first compound 0.02 µM) of 0.0231. The relative viability (NCI-H2405; first compound 0.0002 µM) was 0.2, the relative viability (NCI-H2405; first compound 0.000632 µM) was 0.178 and the relative viability (NCI-H2405; first compound 0.002 µM) was 0.199. It also gave a relative viability (NCI-H2405; first compound 0.006325 µM) of 0.149, a relative viability (NCI-H2405; first compound 0.02 µM) of 0.14 and a relative viability (NCI-H2342; first compound 0.0002 µM) of 0.309. The relative viability (NCI-H2342; first compound 0.000632 µM) was 0.326, the relative viability (NCI-H2342; first compound 0.002 µM) was 0.308 and the relative viability (NCI-H2342; first compound 0.006325 µM) was 0.285. For the same compound, the relative viability (NCI-H2342; first compound 0.02 µM) was 0.265, the relative viability (NCI-H2228; first compound 0.0002 µM) was 0.429 and the relative viability (NCI-H2228; first compound 0.000632 µM) was 0.151. It also gave a relative viability (NCI-H2228; first compound 0.002 µM) of 0.12, a relative viability (NCI-H2228; first compound 0.006325 µM) of 0.146 and a relative viability (NCI-H2228; first compound 0.02 µM) of 0.0836. For the same compound, the relative viability (PC-3 [JPC-3]; first compound 0.0002 µM) was 0.94, the relative viability (PC-3 [JPC-3]; first compound 0.000632 µM) was 0.954 and the relative viability (PC-3 [JPC-3]; first compound 0.002 µM) was 0.762. It also gave a relative viability (PC-3 [JPC-3]; first compound 0.006325 µM) of 0.339, a relative viability (PC-3 [JPC-3]; first compound 0.02 µM) of 0.16 and a relative viability (HCC-15; first compound 0.0002 µM) of 0.456. The relative viability (HCC-15; first compound 0.000632 µM) was 0.221, the relative viability (HCC-15; first compound 0.002 µM) was 0.16 and the relative viability (HCC-15; first compound 0.006325 µM) was 0.21. The relative viability (HCC-15; first compound 0.02 µM) was 0.115, the relative viability (EKVX; first compound 0.0002 µM) was 0.472 and the relative viability (EKVX; first compound 0.000632 µM) was 0.45. The relative viability (EKVX; first compound 0.002 µM) was 0.296, the relative viability (EKVX; first compound 0.006325 µM) was 0.264 and the relative viability (EKVX; first compound 0.02 µM) was 0.195.
